Legend:
[1] = acute oral toxicity to male mice (LD50); details: mouse, in vivo
From the text: Further, these compounds have no detrimental effects on test animals administered therewith, so far as the doses thereof are within an ordinary administration range.

[2] = test system: acute liver damage induced by allyl alcohol; assay: protective effect on acute liver damage associated with periportal necrosis, allyl alcohol model; format: in vivo, mouse (dd strain); details: 250 mg/kg oral 6 h before allyl alcohol 0.075 ml/kg oral; 24 h after
Experimental: The compound of this invention or anethol trithion was orally administered to the male mouse (4 week/old, dd strain) at the dose of 250 mg/kg. Six hours after it, allyl alcohol was orally administered at the dose of 0.075 ml/kg. Twenty four hours after it, the animals were sacrificed to collect blood samples.

[3] = test system: fatty liver induced by carbon tetrachloride; assay: therapeutic effect on fatty liver, carbon tetrachloride model; format: in vivo, rat (SD strain)
Experimental: Carbon tetrachloride also induces fatty liver, but the picture of disease differs from the case of ethionine-induced fatty liver. Carbon tetrachloride is generally considered to damage microsome and thereby to inhibit protein synthesis and induce fatty liver.
Carbon tetrachloride was subcutaneously administered to 36 week-old male rats (SD strain) for 4 days at the dose of 1 ml/kg. The treated animals were left for 3 days after the last administration to maximize the manifestation of fatty liver.
Administration of Compound 4 was commenced on the fourth day after the administration of carbon tetrachloride was completed. It was orally given everyday for 10 days at the dose of 50 or 250 mg/kg. On the 11th day, the animals were sacrificed by exsanguination. The therapeutic effect was evaluated by determining the content of lipid in the liver (triglyceride and total lipid) and examining the histopathological changes. Triglyceride and total lipid were determined colorimetrically by chromotropic acid method and Bragdon's oxidation method, respectively.
Indices for the histopathological change is as follows: […]

[4] = test system: alcohol metabolic function of liver; assay: effect on concentration of ethyl alcohol in the blood; format: in vivo, mouse; details: 250 mg/kg oral 6 h before ethanol 1,000 mg/kg
Experimental: The test compounds are dissolved or suspended in olive oil and administered orally at the dose of 250 mg/kg to the mice. After 6 hours, 1,000 mg/kg of ethyl alcohol was given orally. Blood was taken in a capillary from caudal vein at the time indicated in the results. The plasma was obtained by centrifugation. The concentration of ethyl alcohol in the plasma was measured by FID type gas liquid chromatography. Five mice were used for each group.

[5] = test system: glucose metabolic function of liver; assay: effect on glucose metabolism (blood sugar); format: in vivo, mouse; details: for Blood Sugar: 250 mg/kg oral 6 h before glucose 4.0 g/kg
Experimental: Methods: The test compounds dissolved in olive oil and administered orally at the dose of 250 mg/kg to the mice. After 6 hours, 4.0 g/kg of glucose was orally administered. The same amount of glucose was given to the control animals. 0.02 ml of blood was taken from caudal vein of the mice at 30, 60, 90 and 120 min. after glucose administration. Blood sugar was measured by the procedure of Somogyi-Nelson. Number of animals used was 5 to 6 mice for each treatment.

[6] = 50 mg/kg oral everyday for 10 days

SMILES: CC(C)OC(=O)C(C(=O)OC(C)C)=C1SC=CS1 [Compound 4, diisopropyl 1,3-dithiol-2-ylidene malonate]
- LD50 [1]: 3120 mg/kg
- BSP [2]: 17 ± 3.2
- Total lipid [3, 6]: 78.6 ± 16.8 mg/g-liver
- Triglyceride [3, 6]: 37.6 ± 8.5 mg/g-liver
- Total lipid ([3]; 250 mg/kg, 10 days): 64.1 ± 10.2 mg/g-liver
- Triglyceride ([3]; 250 mg/kg, 10 days): 23.6 ± 7.0 mg/g-liver
- Concentration of Ethyl alcohol in Plasma ([4]; 0 min): 25 ± 12 ppm
- Concentration of Ethyl alcohol in Plasma ([4]; 5 min): 582 ± 143 ppm
- Concentration of Ethyl alcohol in Plasma ([4]; 15 min): 468 ± 30 ppm
- Concentration of Ethyl alcohol in Plasma ([4]; 30 min): 220 ± 87 ppm
- Concentration of Ethyl alcohol in Plasma ([4]; 60 min): 29 ± 17 ppm
- Concentration of Ethyl alcohol in Plasma ([4]; 120 min): not detected
- Blood Sugar, percent of 0 min value ([5]; 0 min): 100%
- Blood Sugar ([5]; 0 min): 123 ± 10.9 mg/dL
- Blood Sugar ([5]; 30 min): 282 ± 25.2 mg/dL
- Blood Sugar ([5]; 60 min): 236 ± 19.7 mg/dL
- Blood Sugar ([5]; 90 min): 159 ± 18.3 mg/dL
- Blood Sugar ([5]; 120 min): 138 ± 14.4 mg/dL
- Blood Sugar, percent of 0 min value ([5]; 30 min): 229%
- Blood Sugar, percent of 0 min value ([5]; 60 min): 192%
- Blood Sugar, percent of 0 min value ([5]; 90 min): 129%
- Blood Sugar, percent of 0 min value ([5]; 120 min): 112%
